Each compound was assayed against human TrkA receptor (Homo sapiens (Human), UniProt P04629) (assay: TrkA functional activity, DiscoverX PathHunter assay). Details: U2OS cells expressing human TrkA-PK, Shc1-EA and p75NTR; compound 1 h, then NGF at ~80% of maximal response for 3 h; luminescence.
Type: cell-based

Chain of human TrkA receptor (P04629 33-796): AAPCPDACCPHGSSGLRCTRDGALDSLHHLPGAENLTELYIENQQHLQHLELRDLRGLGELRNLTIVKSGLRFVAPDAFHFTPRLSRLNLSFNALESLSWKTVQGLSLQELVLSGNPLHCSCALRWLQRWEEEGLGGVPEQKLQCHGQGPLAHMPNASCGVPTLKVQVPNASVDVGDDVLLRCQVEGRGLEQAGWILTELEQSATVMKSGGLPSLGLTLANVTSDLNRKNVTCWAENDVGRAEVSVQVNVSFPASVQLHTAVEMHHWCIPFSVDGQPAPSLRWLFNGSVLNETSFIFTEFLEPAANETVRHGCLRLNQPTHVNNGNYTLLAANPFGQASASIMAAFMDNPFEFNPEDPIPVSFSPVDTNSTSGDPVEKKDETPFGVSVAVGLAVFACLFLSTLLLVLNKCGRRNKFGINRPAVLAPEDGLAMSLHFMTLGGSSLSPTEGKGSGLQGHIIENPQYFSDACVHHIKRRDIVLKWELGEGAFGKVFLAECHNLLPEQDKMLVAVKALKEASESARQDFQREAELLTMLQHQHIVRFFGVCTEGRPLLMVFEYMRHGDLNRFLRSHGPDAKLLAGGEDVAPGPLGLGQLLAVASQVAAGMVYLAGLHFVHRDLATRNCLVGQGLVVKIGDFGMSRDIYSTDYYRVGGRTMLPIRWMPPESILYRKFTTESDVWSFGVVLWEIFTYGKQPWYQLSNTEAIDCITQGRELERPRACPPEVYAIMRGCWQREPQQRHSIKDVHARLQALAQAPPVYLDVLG

Structure (SMILES)	IC50 [nM]
O=C(Nc1c2cc(C(O)C(F)F)ccc2nn1-c1ccccc1)c1cc(-c2ncccn2)c(C(F)(F)F)cc1F (single isomer, unassigned; isomer a) [Compound 58, (R or S)-N-[5-(2,2-difluoro-1-hydroxyethyl)-2-phenyl-2H-indazol-3-yl]-2-fluoro-5-pyrimidin-2-yl-4-(trifluoromethyl)benzamide, isomer A]	6.9
O=C(Nc1c2ncc(C(O)CO)cc2nn1-c1ccccc1)c1cc(-c2ncccn2)c(C(F)(F)F)cc1Cl (single isomer, unassigned; isomer a) [Compound 64, (R or S)-2-chloro-N-[6-(1,2-dihydroxyethyl)-2-phenyl-2H-pyrazolo[4,3-b]pyridin-3-yl]-5-pyrimidin-2-yl-4-(trifluoromethyl)benzamide, isomer A]	15
O=C(Nc1c2ccc(C(O)C(F)F)cc2nn1-c1ccccc1)c1cc(-c2ncccn2)c(C(F)(F)F)cc1F (single isomer, unassigned; isomer b) [Compound 57, (R or S)-N-[6-(2,2-difluoro-1-hydroxyethyl)-2-phenyl-2H-indazol-3-yl]-2-fluoro-5-pyrimidin-2-yl-4-(trifluoromethyl)benzamide, isomer B]	13
O=C(Nc1c2ncc(C(O)CO)cc2nn1-c1ccccc1)c1cc(-c2ncccn2)c(C(F)(F)F)cc1Cl (single isomer, unassigned; isomer b) [Compound 65, (R or S)-2-chloro-N-[6-(1,2-dihydroxyethyl)-2-phenyl-2H-pyrazolo[4,3-b]pyridin-3-yl]-5-pyrimidin-2-yl-4-(trifluoromethyl)benzamide, isomer B]	29
O=C(Nc1c2ncccc2nn1-c1ccccc1)c1cc(-c2ncccn2)c(C(F)(F)F)cc1F [Compound 1, 2-Fluoro-N-(2-phenyl-2H-pyrazolo[4,3-b]pyridin-3-yl)-5-pyrimidin-2-yl-4-(trifluoromethyl)benzamide]	5.2
O=C(Nc1c2[nH]c(=O)ccc2nn1-c1ccccc1)c1cc(-c2ncccn2)c(C(F)(F)F)cc1F [Compound 2, 2-Fluoro-N-(5-oxo-2-phenyl-4,5-dihydro-2H-pyrazolo[4,3-b]pyridin-3-yl)-5-(pyrimidin-2-yl)-4-(trifluoromethyl)benzamide]	6
O=C(Nc1c2ncccc2nn1-c1cccc(CO)c1)c1cc(-c2ncccn2)c(C(F)(F)F)cc1F [Compound 3, 2-Fluoro-N-(2-(3-(hydroxymethyl)phenyl)-2H-pyrazolo[4,3-b]pyridin-3-yl)-5-(pyrimidin-2-yl)-4-(trifluoromethyl)benzamide]	122
Cn1ccc(-c2cc(C(=O)Nc3c4cc(C#N)ccc4nn3-c3ccccc3)ccc2C(F)(F)F)n1 [Compound 4, N-(5-cyano-2-phenyl-2H-indazol-3-yl)-3-(1-methyl-1H-pyrazol-3-yl)-4-(trifluoromethyl)benzamide]	8.8
Cn1ccc(-c2cc(C(=O)Nc3c4cccnc4nn3-c3ccccc3)c(F)cc2C(F)(F)F)n1 [Compound 6, 2-fluoro-5-(1-methyl-1H-pyrazol-3-yl)-N-(2-phenyl-2H-pyrazolo[3,4-b]pyridin-3-yl)-4-(trifluoromethyl)benzamide]	6.1
Cn1ccc(-c2cc(C(=O)Nc3c4cc(C(F)(F)F)ccc4nn3-c3ccccc3)c(F)cc2C(F)(F)F)n1 [Compound 7, 2-fluoro-5-(1-methyl-1H-pyrazol-3-yl)-N-[2-phenyl-5-(trifluoromethyl)-2H-indazol-3-yl]-4-(trifluoromethyl)benzamide]	29
COc1ccc2nn(-c3ccccc3)c(NC(=O)c3cc(-c4ncccn4)c(C(F)(F)F)cc3F)c2n1 [Compound 8, 2-fluoro-N-(5-methoxy-2-phenyl-2H-pyrazolo[4,3-b]pyridin-3-yl)-5-pyrimidin-2-yl-4-(trifluoromethyl)benzamide]	18
CC(=O)NCc1cccc(-n2nc3cccnc3c2NC(=O)c2cc(-c3ncccn3)c(C(F)(F)F)cc2F)c1 [Compound 9, N-(2-{3-[(acetylamino)methyl]phenyl}-2H-pyrazolo[4,3-b]pyridin-3-yl)-2-fluoro-5-pyrimidin-2-yl-4-(trifluoromethyl)benzamide]	744
O=C(Nc1c2cc(CO)ncc2nn1-c1ccccc1)c1cc(-c2ncccn2)c(C(F)(F)F)cc1F [Compound 11, 2-Fluoro-N-(5-(hydroxymethyl)-2-phenyl-2H-pyrazolo[3,4-c]pyridin-3-yl)-5-(pyrimidin-2-yl)-4-(trifluoromethyl)benzamide]	20
Cc1cc(-n2nc3ccc(CO)cc3c2NC(=O)c2cc(-c3ncccn3)c(C(F)(F)F)cc2F)n[nH]1 [Compound 15, 2-fluoro-N-[5-(hydroxymethyl)-2-(5-methyl-1H-pyrazol-3-yl)-2H-indazol-3-yl]-5-pyrimidin-2-yl-4-(trifluoromethyl)benzamide]	74
O=C(Nc1c2ccc(CO)cc2nn1-c1ccccc1)c1cc(-c2ncccn2)c(C(F)(F)F)cc1Cl [Compound 16, 2-chloro-N-[6-(hydroxymethyl)-2-phenyl-2H-indazol-3-yl]-5-pyrimidin-2-yl-4-(trifluoromethyl)benzamide]	7.9
O=C(Nc1c2nc(CO)ccc2nn1-c1ccccc1)c1cc(-c2ncccn2)c(C(F)(F)F)cc1Cl [Compound 17, 2-chloro-N-[5-(hydroxymethyl)-2-phenyl-2H-pyrazolo[4,3-b]pyridin-3-yl]-5-pyrimidin-2-yl-4-(trifluoromethyl)benzamide]	18

Now from value to compound:

IC50 [nM]	Structure (SMILES)
2.4	CC(O)c1ccc2nn(-c3ccccc3)c(NC(=O)c3ccc(C(F)(F)F)c(-c4ccn(C)n4)c3)c2c1 (single isomer, unassigned; isomer b) [Compound 24, (R or S)-N-[5-(1-hydroxyethyl)-2-phenyl-2H-indazol-3-yl]-3-(1-methyl-1H-pyrazol-3-yl)-4-(trifluoromethyl)benzamide, isomer B]
1.1	CC(O)c1cnc2c(NC(=O)c3cc(-c4ncccn4)c(C(F)(F)F)cc3F)n(-c3ccccc3)nc2c1 (single isomer, unassigned; isomer b) [Compound 30, (R or S)-2-fluoro-N-[6-(1-hydroxyethyl)-2-phenyl-2H-pyrazolo[4,3-b]pyridin-3-yl]-5-pyrimidin-2-yl-4-(trifluoromethyl)benzamide, isomer B]
5.1	CC(O)c1ccc2nn(-c3ccccc3)c(NC(=O)c3cc(-c4cc[nH]n4)c(C(F)(F)F)cc3F)c2n1 (single isomer, unassigned; isomer b) [Compound 32, (R or S)-2-fluoro-N-[5-(1-hydroxyethyl)-2-phenyl-2H-pyrazolo[4,3-b]pyridin-3-yl]-5-(1H-pyrazol-3-yl)-4-(trifluoromethyl)benzamide, isomer B]
0.48	CC(O)c1cnc2c(NC(=O)c3cc(-c4ccn(C)n4)c(C(F)(F)F)cc3F)n(-c3ccccc3)nc2c1 (single isomer, unassigned; isomer b) [Compound 34, (R or S)-2-fluoro-N-[6-(1-hydroxyethyl)-2-phenyl-2H-pyrazolo[4,3-b]pyridin-3-yl]-5-(1-methyl-1H-pyrazol-3-yl)-4-(trifluoromethyl)benzamide, isomer B]
2.4	CC(O)c1cnc2c(NC(=O)c3cc(-c4ncccn4)c(C(F)(F)F)cc3Cl)n(-c3ccccc3)nc2c1 (single isomer, unassigned; isomer b) [Compound 36, (R or S)-2-chloro-N-[6-(1-hydroxyethyl)-2-phenyl-2H-pyrazolo[4,3-b]pyridin-3-yl]-5-pyrimidin-2-yl-4-(trifluoromethyl)benzamide, isomer B]
4.9	CC(O)c1ccc2c(NC(=O)c3cc(-c4ncccn4)c(C(F)(F)F)cc3Cl)n(-c3ccccc3)nc2c1 (single isomer, unassigned; isomer b) [Compound 38, (R or S)-2-chloro-N-[6-(1-hydroxyethyl)-2-phenyl-2H-indazol-3-yl]-5-pyrimidin-2-yl-4-(trifluoromethyl)benzamide, isomer B]
4.9	O=C(Nc1c2cc(C(O)C(F)F)ccc2nn1-c1ccccc1)c1cc(-c2ncccn2)c(C(F)(F)F)cc1F (single isomer, unassigned; isomer b) [Compound 59, (R or S)-N[5-(2,2-difluoro-1-hydroxyethyl)-2-phenyl-2H-indazol-3-yl]-2-fluoro-5-pyrimidin-2-yl-4-(trifluoromethyl)benzamide, isomer B]
0.66	Cn1ccc(-c2cc(C(=O)Nc3c4ncccc4nn3-c3ccccc3)c(F)cc2C(F)(F)F)n1 [Compound 5, 2-fluoro-5-(1-methyl-1H-pyrazol-3-yl)-N-(2-phenyl-2H-pyrazolo[4,3-b]pyridin-3-yl)-4-(trifluoromethyl)benzamide]
0.84	Cn1ccc(-c2cc(C(=O)Nc3c4cc(CO)ccc4nn3-c3ccccc3)ccc2C(F)(F)F)n1 [Compound 10, N-(5-(Hydroxymethyl)-2-phenyl-2H-indazol-3-yl)-3-(1-methyl-1H-pyrazol-3-yl)-4-(trifluoromethyl)benzamide]
2.6	O=C(Nc1c2cc(CO)ccc2nn1-c1ccccc1)c1cc(-c2ncccn2)c(C(F)(F)F)cc1F [Compound 12, 2-fluoro-N-[5-(hydroxymethyl)-2-phenyl-2H-indazol-3-yl]-5-pyrimidin-2-yl-4-(trifluoromethyl)benzamide]
3.8	O=C(Nc1c2ccc(CO)cc2nn1-c1ccccc1)c1cc(-c2ncccn2)c(C(F)(F)F)cc1F [Compound 13, 2-fluoro-N-[6-(hydroxymethyl)-2-phenyl-2H-indazol-3-yl]-5-pyrimidin-2-yl-4-(trifluoromethyl)benzamide]
1.2	O=C(Nc1c2ccc(CO)cc2nn1-c1ccccc1)c1cc(-c2cc[nH]n2)c(C(F)(F)F)cc1F [Compound 14, 2-fluoro-N-[6-(hydroxymethyl)-2-phenyl-2H-indazol-3-yl]-5-(1H-pyrazol-3-yl)-4-(trifluoromethyl)benzamide]
1.9	Cn1ccc(-c2cc(C(=O)Nc3c4cc(CO)ncc4nn3-c3ccccc3)c(F)cc2C(F)(F)F)n1 [Compound 18, 2-fluoro-N-[5-(hydroxymethyl)-2-phenyl-2H-pyrazolo[3,4-c]pyridin-3-yl)-5-(1-methyl-1H-pyrazol-3-yl)-4-(trifluoromethyl)benzamide]
